# From patent US20260263550A1, “METHODS AND COMPOSITIONS FOR TREATING, PREVENTING, INHIBITING, AMELIORATING OR DELAYING THE ONSET OF OPHTHALMIC CONDITIONS” (Stealth BioTherapeutics Inc., priority 2021, published 2026)
# Legend:
# [1] = tested on: iPSC-derived RPE cells from AMD donors; assay: Cell viability assay on nitrite-modified ECM (Real Time-Glo MT Cell Viability Assay); type: cell-based, human; conditions: 10, 100, 1000 nM; 24 hours; versus vehicle-treated cells; FIG. 8J, *p<0.05
# Method: (§1) General. iPSC-derived RPE were generated from AMD patients (2 atrophic; 1 exudative) and patients with no history of AMD (n=3). To test the therapeutic efficacy of elamipretide and compound of Formula IIa, cell viability was analyzed on nitrite-modified extracellular matrix (ECM), a typical modification of aged Bruch's membrane, for 24 hrs. DNA microarrays were used to elucidate gene expression in AMD-derived RPE cultured on nitrite-modified ECM.
# Preparation of RPE cell-derived ECM and nitrite-modified ECM RPE cell-derived ECM plates were prepared from ARPE-19 cells as described in Wang et al., Curr Eye Res. 30:691-702 (2005); Fields et al. (2017); and Moreira et al., Transl Vis Sci Technol. 4:10 (2015). ECM on 96-well plates were used to create two experimental plating surfaces (nontreated ECM and nitrite-modified ECM). Nitrite-modified ECM was prepared by adding 100 mM sodium nitrite to ECM followed by incubation at 37° C. for 7 days. Plates were then washed with DPBS and incubated with DPBS for 4 hours to completely remove the nitrite. […]
# Cell viability was measured by Real Time-Glo MT Cell Viability Assay (Promega, Madison, WI, www.promega.com) according to the manufacturer's protocol. […] Luminescent signals were acquired using a BioTek FLx800 plate reader (BioTek).
# [2] = tested on: iPSC-derived RPE cells from AMD donors; assay: Microarray analysis of gene expression on in vitro Bruch's membrane model; type: cell-based, human; conditions: AMD-derived RPE on nitrite-modified ECM, 10, 100, 1000 nM, 24 hours
# Method: as §1
# Microarray analysis. iPSC-derived RPE cells from AMD donors (n=3; 2 atrophic with GA, 1 exudative) were treated with drug (elamipretide or compound of Formula IIa) as described below and cultured on an in vitro Bruch's membrane model for 24 hours.
# • AMD donors only (n=3 individual donors) • Cells treated with elamipretide (also referred to as “309” in the figures) at 10 nM, 100 nM and 1000 nM • Cells treated with compound of Formula IIa (also referred to as “146c” in the figures) at 10 nM, 100 nM, 1000 nM
# Microarray studies using Affymetrix GeneChip Human Clariom™ S Assay were performed as described in Gong et al. (2020).
# [3] = 28-day SC study safety endpoints (clinical observations, ophthalmology); type: in vivo, cynomolgus monkey
# Method: Male and female cynomolgus monkeys were divided into four groups (Groups 1 to 4). Groups 1 and 4 consisted of five males and five females each and Groups 2 and 3 consisted of three males and three females each. Animals were dosed via SC injection once daily for 28 consecutive days. Group 1 animals received the control article, 0.9% sodium chloride injection, USP (saline). Group 2, 3, and 4 animals received the test article, compound of Formula IIa, at dose levels of 2, 5, and 15 mg/kg/day, respectively. Three males and three females from Groups 1 to 3, and three males and one female from Group 4 were necropsied on Day 29 (terminal necropsy). Two males and two females from Groups 1 and 4 were necropsied on Day 42 (recovery necropsy), after a 13-day treatment-free period. […] At termination, gross observations and organ weights were recorded, and eye/optic nerve tissue samples were collected for microscopic evaluation and biodistribution assays. […]
# Body weight. Body weights were measured twice during acclimation (including Day −1), then weekly during the in-life phase (Days 7, 14, 21, 28, 35, and 41) and on the day of corresponding necropsy (Day 29 or Day 42). […]
structure (smiles),measurement,setting,value
"Cc1cc(O)cc(C)c1C[C@H](NC(=O)[C@H](N)CCCNC(=N)N)C(=O)N[C@@H](CCCCN)c1nc(Cc2ccccc2)no1.Cl.Cl.Cl [Formula IIa, (R)-2-amino-N—((S)-1-(((S)-5-amino-1-(3-benzyl-1,2,4-oxadiazol-5-yl)pentyl)amino)-3-(4-hydroxy-2,6-dimethylphenyl)-1-oxopropan-2-yl)-5-guanidinopentanamide]",AMD-derived RPE cell viability on nitrite-modified ECM,[1],significantly enhanced
same,expression of complement regulatory genes including CFHR2,[2]; FIG. 8S,increase expression
same,"expression of complement component genes (C1R, C3, C4A) increased by nitration of ECM",[2]; FIGS. 8L-8P,reverse this trend
same,"expression of mitochondrial-related genes, such as CYP24A1 and GLS",[2]; FIGS. 8W-8Z,altered the expression
same,tolerability of dosing,"[3]; SC 15 mg/kg/day (Group 4), two females necropsied early on Days 25 and 27",not well tolerated
same,ophthalmology examination findings,"[3]; SC 2, 5, 15 mg/kg/day, Day 24 (Week 4)",no compound of Formula IIa-related findings
